Marks after values point to notes of the source that are not given here.
Legend:
[1] = test system: open-field test in rats; assay: Open-field test (anxiogenic test model); assay type: in vivo, rat; parameters: Immobility: unit not given here
Experimental: This was determined according to a previously described method (Bhattacharya et al. 1998).
MDMA (5 and 10 mg/Kg, i.p.) produced a dose-related decrease in the number of squares crossed and rears, with concomitant immobility and increased defecation; these effects are qualitatively similar to those induced by yohimbine (2 mg/Kg, i.p. in 0.9% saline as the vehicle). DBPs (1 and 2, 1:1 mixture 10 mg/Kg, p.o. day-1, for 7 days) were administered prior to MDMA or yohimbine administration, on the 7th day, 1 hour after the last DBPs administration (p.o.). Similar anti-anxiogenic effects were observed on pretreatment of MDMA, followed by DBPs.

[2] = test system: CS-induced gastric ulceration in albino rats; assay: Chronic stress (foot-shock) induced gastric ulceration; assay type: in vivo
Experimental: A comparative study of DBPs (1, 2, Scheme-II; 1:1 mixture), EPA and DHA was carried out to determine their relative adaptogenic potency against chronic stress in albino rats. The study is also relevant in view of the projected links of EPA and DHA to mental development in children which is severely retarded by chronic stress.
Rats were randomly assigned to control or stress groups. Those assigned to the stress groups were subjected to 1 hour foot-shock, through a grid floor, every day for 14 days. The duration of each shock (2 mA) and the intervals between the shocks were randomly programmed between 3-5 seconds and 10-110 seconds, respectively, to make the stress unpredictable.
EPA (Aldrich), DHA (Sigma) and DBPs were separately suspended/dissolved in 0.3% carboxymethylcellulose (CMC) in distilled water and administered orally (p.o.) for 14 days, starting on day 1, 60 min. prior to electro-shock. Control animals received only the vehicle in either unstressed or the stressed rats for the same period in a volume of 2 ml/Kg, p.o. Estimations were conducted on day 14, one hour after the last stress procedure and two hours after the last test compound or vehicle was administered.
The three test compounds had, albeit in different extent, dose-related anti-ulcerogenic effect. The efficacy was in the order: DBPs>DHA>EPA (Table 2).

[3] = test system: CS-induced alteration of adrenal gland ascorbic acid and corticosterone concentrations and plasma corticosterone level; assay: Chronic stress induced alteration of adrenal ascorbic acid, adrenal corticosterone and plasma corticosterone; assay type: in vivo, albino rats
Experimental: The study is also relevant in view of the projected links of EPA and DHA to mental development in children which is severely retarded by chronic stress. Rats were randomly assigned to control or stress groups. Those assigned to the stress groups were subjected to 1 hour foot-shock, through a grid floor, every day for 14 days. […] Control animals received only the vehicle in either unstressed or the stressed rats for the same period in a volume of 2 ml/Kg, p.o. […] CS caused marked depletion of adrenal gland ascorbic acid and corticosterone concentrations with concomitant increase in plasma corticosterone levels. […] They had no per se effect on the indices of stress investigated (Table 3).

[4] = test system: active learning in rats; assay: Active learning (learning acquisition), number of trials to reach criterion; assay type: in vivo, rat; settings: p.o. once daily 45 min before trial for 4 days, mean ± SEM
Source text: In the learning acquisition paradigm, in the control group, the number of shocked and unshocked trials required to reach the criterion of 10 correct conditional responses, were 14.33 and 43.70, respectively.

[5] = test system: pylorus ligated albino rats; assay: Anti-ulcerogenic effect in pylorus ligated rats (ulcer index, gastric juice); assay type: in vivo
Source text: Mixture of DBPs (1:1, 1 and 2, Scheme-II), on'the other hand, increased the contents of individual and the total carbohydrates and also the total carbohydrate/protein ratio in the gastric juice. The ratio of the total carbohydrate/protein was taken as the index of the mucin activity.
Another essential criterion of determining the status of mucosal resistance/barrier is the state of mucus secretion. DBPs increase not only the mucosal cellular mucus, but also secrete more dissolved mucus in the gastric juice as evidenced by their effects on gastric juice carbohydrates and on the increased carbohydrate/protein ratio.

[6] = L-DOPA-sparing by singlet oxygen quenching (Rose Bengal plates); assay type: biochemical; settings: for Percent inhibition of L-DOPA oxidation (mean ± SEM): 30 min exposure to 1O2, Pi buffer pH 7.2
Source text: A comparative study of the antioxidant defence provided by the three compounds, DBPs, EPA and DHA, was made. The reason for selection of this test (antioxidant-profile) is, that, agents that can regulate systemic production and interactions of reactive oxygen species, like singlet oxygen, superoxide radical and hydroxyl radical, can provide surveillance umbrella to living organisms against ‘oxidative stress’.
The singlet oxygen was generated on Rose Bengal-coated glass plates by illuminating with a 150-W spot-light at a distance of 30 cm, through water to filter infra-red light (Ghosal, S. and Bhattacharya, S. K. (1996). Antioxidant defence by shilajit, Indian J. Chem., 35B, 127-132).

[7] = Oral EPA or DHA to albino rats, blood levels of DBPs and benzoic acid by HPLC and GC-MS; assay type: in vivo
Experimental: Oral administration of EPA to albino rats and tracking the blood level of DBPs by HPLC were conducted. […] Cells and plasma were separated by centrifugation and extracted separately with methanol before (BH) and after acidic (HCl) hydrolysis (AH). These extracts were subjected to HPLC, when DBPs (3-hydroxy- and 3,8-dihydroxydibenzo-α-pyrones) so formed were tracked and estimated. FIGS. 2A and 2B show the turnover of EPA into 3,8-dihydroxydibenzo-α-pyrone.
Blood samples (2.5 ml) were collected from albino rats (200-220 grams, b.w.) by retro-orbital puncture, in heparinized tubes and centrifuged (3000 rpm) for 5 min. The supernatant (plasma, 0.4 ml) was collected and extracted with methanol (5 ml×3), at 60° C. by sonication for 10 min each. The combined methanolic extract was filtered and evaporated in vacuo. The residue so obtained was subjected to HPLC and GC-MS (as TMS derivatives) analyses. The presence of both 3-hydroxy-(str. 1, Scheme-II) and 3,8-dihydroxy-dibenzo-α-pyrone (str. 2, Scheme-II) was detected. Thus, the two DBPs are the normal metabolites of the albino rats. Their normal concentrations (control value) in the experimental rat blood were estimated at 0.170±0.052 μg/ml (str. 1, Scheme-II) and 0.100±0.023 μg/ml (str. 2, Scheme-II).
In the EPA treatment experiment to the above animals, EPA (25 mg, in propylene glycol, 0.5 ml) per rat was fed through the oral route. […]

[8] = test system: mice; assay: Forced swimming immobility (behavioral despair), anti-stress; assay type: in vivo; settings: in these doses (50 mg/Kg p.o. × 4 days); statistically insignificant
Experimental: Rodents when forced to swim in a restricted place, from which they cannot escape, become immobile after an initial period of vigorous activity. The observed immobility signified behavioral despair, resembling a state of mental depression. Behavioral depression is a common consequence of stress. The significant anti-stress effects of DBPs (1 and 2, Scheme-II), was assessed by the considerable reduction in the period of immobility in the test compound treated mice.

[9] = test system: increased 5-HT release activity in MDMA-treated rats; assay: MDMA-withdrawal increased 5-HT release; assay type: in vivo, rat; settings: post-treatment in MDMA-treated rats
Source text: EPA or DHA would not be truly effective for this purpose. There is evidence that presynaptic serotonergic, but not dopaminergic, mechanisms are involved in the enactogen-like discriminative stimulus properties of MDMA. MDMA increases the number of rat brain 5-hydroxytryptamine 5-HT1A receptors and induces increased release of 5-HT from presynaptic terminals. The MDMA-withdrawal syndrome includes this increased 5-HT release activity in rats.

[10] = 5 mg/Kg p.o. for 14 days + chronic stress
[11] = 10 mg/Kg p.o. for 14 days + chronic stress
[12] = 5 mg/Kg p.o., unstressed rats (per se effect)
[13] = 10 mg/Kg p.o., unstressed rats (per se effect)
[14] = 10 mg/Kg p.o. for 7 days, prior to MDMA or yohimbine administration

| SMILES | No. of ulcers [2, 10] | Severity of ulcers [2, 10] | Ulcer incidence (%) [2, 10] [%] | No. of ulcers [2, 11] | Severity of ulcers [2, 11] | Ulcer incidence (%) [2, 11] [%] | Adrenal ascorbic acid [3, 10] [μg/100 mg] | Adrenal corticosterone [3, 10] [μg/100 mg] | Plasma corticosterone [3, 10] | Adrenal ascorbic acid [3, 12] [μg/100 mg] | Adrenal corticosterone [3, 12] [μg/100 mg] | Plasma corticosterone [3, 12] [µg/dL] | Adrenal ascorbic acid [3, 11] | Adrenal corticosterone [3, 11] | Plasma corticosterone [3, 11] | Adrenal ascorbic acid [3, 13] [μg/100 mg] | Adrenal corticosterone [3, 13] [μg/100 mg] | Plasma corticosterone [3, 13] [µg/dL] | Faecal pellets [1, 14] | Immobility [1, 14] | also measured |
| --- | --- | --- | --- | --- | --- | --- | --- | --- | --- | --- | --- | --- | --- | --- | --- | --- | --- | --- | --- | --- | --- |
| CNC(C)Cc1ccc2c(c1)OCO2 (stereo not drawn) [MDMA, Methylenedioxymethylamphetamine] | – | – | – | – | – | – | – | – | – | – | – | – | – | – | – | – | – | – | – | – | Faecal pellets ([1]; 5 mg/Kg, i.p.): 6.7 ± 0.5; Immobility ([1]; 5 mg/Kg, i.p.): 69.3 ± 6.1; Rears ([1]; 5 mg/Kg, i.p.): 14.3 ± 4.2; Squares crossed ([1]; 5 mg/Kg, i.p.): 111.2 ± 8.0; Faecal pellets ([1]; 10 mg/Kg, i.p.): 8.0 ± 2.2; Immobility ([1]; 10 mg/Kg, i.p.): 80.1 ± 7.0; Rears ([1]; 10 mg/Kg, i.p.): 11.2 ± 3.9; Squares crossed ([1]; 10 mg/Kg, i.p.): 74.7 ± 5.5 |
| COC(=O)[C@@H]1[C@H]2C[C@H]3c4[nH]c5ccccc5c4CCN3C[C@@H]2CC[C@@H]1O [Yohimbine, yohimbine] | – | – | – | – | – | – | – | – | – | – | – | – | – | – | – | – | – | – | – | – | Faecal pellets ([1]; 2 mg/Kg, i.p. in 0.9% saline): 7.5 ± 1.2; Immobility ([1]; 2 mg/Kg, i.p. in 0.9% saline): 70.2 ± 4.9; Rears ([1]; 2 mg/Kg, i.p. in 0.9% saline): 12.8 ± 4.4; Squares crossed ([1]; 2 mg/Kg, i.p. in 0.9% saline): 90.8 ± 7.4 |
| CC/C=C\C/C=C\C/C=C\C/C=C\C/C=C\C/C=C\CCC(=O)O [DHA, docosahexaenoic acid] | 15.8 ± 4.0 | 28.1 ± 5.9 | 70 | 14.7 ± 3.8 | 25.0 ± 5.2 | 60 | 140.7 ± 20.5 | 2.5 ± 1.0 | 22.5 ± 3.5^b μg/dL | 309.4 ± 30.4 | 4.8 ± 1.2 | 15.0 ± 0.9 | 148.0 ± 16.7^b μg/100 mg | 2.8 ± 1.0^b μg/100 mg | 17.9 ± 0.9^b μg/dL | 308.9 ± 27.4 | 5.5 ± 1.0 | 14.7 ± 1.0 | 5.7 ± 4.1 | 59.9 ± 7.2 | Rears [1, 14]: 14.0 ± 5.5; Squares crossed [1, 14]: 122.1 ± 5.5; Number of trials to reach criterion, Shocked trials ([4]; dose 2.5 mg/ml): 12.55 ± 2.03; Number of trials to reach criterion, Unshocked trials ([4]; dose 2.5 mg/ml): 39.33 ± 2.04; Number of trials to reach criterion, Shocked trials ([4]; dose 5.0 mg/ml): 12.78 ± 1.83 |
| CC(=O)Oc1ccccc1C(=O)O [ASP, aspirin] | – | – | – | – | – | – | – | – | – | – | – | – | – | – | – | – | – | – | – | – | protein content in the gastric juice ([5]; compared to the vehicle control): significant increase; contents of DNA and protein in the gastric juice ([5]; pylorus ligated rats): appreciable increase; total carbohydrate/protein ratio in the gastric juice (index of mucin activity) ([5]; pylorus ligated rats): considerable decrease |
| CC/C=C\C/C=C\C/C=C\C/C=C\C/C=C\CCCC(=O)O [EPA, cis-5,8,11,14,17-Eicosapentaenoic acid] | 16.5 ± 3.4 | 28.3 ± 7.7 | 70 | 14.3 ± 4.4 | 26.4 ± 6.2 | 60 | 138.5 ± 18.2 | 3.0 ± 1.4 | 17.9 ± 0.9^b μg/dL | 308.8 ± 28.7 | 5.7 ± 1.4 | 15.0 ± 1.6 | 144.2 ± 14.7^b μg/100 mg | 2.9 ± 0.7^b μg/100 mg | 18.3 ± 1.8^b μg/dL | 310.5 ± 26.0 | 5.2 ± 0.8 | 15.5 ± 1.1 | 6.8 ± 3.0 | 70.1 ± 5.3 | antioxidant effect (1O2 quenching) ([6]; 0.1-0.4 mM): only weak antioxidant effect; Percent inhibition of L-DOPA oxidation (mean ± SEM) ([6]; L-DOPA:test compound 1:0.1 mM): 7.7 ± 1.3%; Percent inhibition of L-DOPA oxidation (mean ± SEM) ([6]; L-DOPA:test compound 1:0.4 mM): 11.3 ± 3.2%; blood level of 3,8-(OH)2-DBP (2) versus control ([7]; after 24 h of EPA treatment): higher than that of the control; blood level of 3,8-(OH)2-DBP (2) versus control ([7]; after 72 h of EPA treatment): came down to control level; anti-stress response [8]: very weak anti-stress response; Rears [1, 14]: 12.2 ± 4.8; Squares crossed [1, 14]: 116.5 ± 9.9; reversal of the anxiety-inducing potential of MDMA ([1]; Table 5 model): only weak reversal effect; Number of trials to reach criterion, Shocked trials ([4]; dose 2.5 mg/ml): 13.82 ± 1.04; Number of trials to reach criterion, Unshocked trials ([4]; dose 2.5 mg/ml): 40.11 ± 1.88; Number of trials to reach criterion, Shocked trials ([4]; dose 5.0 mg/ml): 12.11 ± 2.01; Number of trials to reach criterion, Unshocked trials ([4]; dose 5.0 mg/ml): 38.14 ± 1.92; anti-ulcerogenic effect ([5]; 10 mg/ml): only weak anti-ulcerogenic effects; prevention of MDMA-withdrawal increased 5-HT release [9]: not |

Reference: patent publication US20050282781A1, “Compositions of stable bioactive metabolites of docosahexaenoic (DHA) and eicosapentaenoic (EPA) acids” (priority 2004, published 2005)
